# Results from ChEMBL document CHEMBL3352446, “Sulforaphane homologues: Enantiodivergent synthesis of both enantiomers, activation of the Nrf2 transcription factor and selective cytotoxic activity” (Eur J Med Chem, 2014).
# Activity calls are given as the source filed them. The calls are words filed in the database; no cut-off is given here.
# Experiments:
# [1] = biological target: T1, Nuclear factor erythroid 2-related factor 2 (Homo sapiens) (UniProt Q16236); test: Activation of NRF2 in human HaCaT cells expressing rat NQO1 assessed as induction of NQO1 expression at 50 nM to 5 uM incubated for 24 hrs by ARE-driven luciferase reporter gene assay; type: cell-based
# T1 sequence (whole entry): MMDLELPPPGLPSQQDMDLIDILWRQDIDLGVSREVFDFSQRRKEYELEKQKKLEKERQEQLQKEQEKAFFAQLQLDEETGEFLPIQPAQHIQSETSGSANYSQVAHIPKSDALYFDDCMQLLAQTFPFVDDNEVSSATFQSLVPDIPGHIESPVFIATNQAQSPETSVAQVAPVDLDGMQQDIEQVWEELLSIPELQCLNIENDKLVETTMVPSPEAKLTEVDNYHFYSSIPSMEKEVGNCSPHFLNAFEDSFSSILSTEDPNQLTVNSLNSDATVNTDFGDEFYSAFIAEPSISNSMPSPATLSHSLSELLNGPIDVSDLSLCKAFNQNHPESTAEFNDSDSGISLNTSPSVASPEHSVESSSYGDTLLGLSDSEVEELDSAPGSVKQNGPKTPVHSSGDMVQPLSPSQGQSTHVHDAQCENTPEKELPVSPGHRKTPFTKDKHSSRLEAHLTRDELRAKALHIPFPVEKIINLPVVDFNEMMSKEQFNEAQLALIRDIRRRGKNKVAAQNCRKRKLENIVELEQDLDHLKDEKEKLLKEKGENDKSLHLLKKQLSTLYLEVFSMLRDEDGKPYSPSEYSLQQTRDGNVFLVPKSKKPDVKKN
# HaCaT [2] = test: Toxicity in human HaCaT cells expressing rat NQO1 assessed as reduction in cell viability at 50 uM incubated for 24 hrs by MTT assay; type: cell-based
# HaCaT [3] = test: Toxicity in human HaCaT cells expressing rat NQO1 assessed as reduction in cell viability at 500 uM incubated for 24 hrs by MTT assay; type: cell-based
# A549 [4] = test: Cytotoxicity against human A549 cells assessed as reduction in cell viability after 48 hrs by MTT assay; type: functional, cell-based; conditions: A549, 48 h
# MRC5 [5] = test: Cytotoxicity against human MRC5 cells assessed as reduction in cell viability after 48 hrs by MTT assay; type: cell-based; conditions: MRC5, 48 h
# A549 [6] = test: Cytotoxicity against human A549 cells assessed as reduction in cell viability at 10 uM after 48 hrs by inverted microscopy; type: functional
# MRC5 [7] = test: Cytotoxicity against human MRC5 cells assessed as reduction in cell viability at 10 uM after 48 hrs by inverted microscopy; type: cell-based; conditions: mrc5, 48 h
# [8] = Cytotoxicity against human MRC5 cells assessed as cell viability at 10 uM after 48 hrs by inverted microscopy; type: cell-based; conditions: read-out: Activity
Structure (SMILES),Activity [1],Activity (HaCaT [2]),Activity (HaCaT [3]),IC50 (A549 [4]),IC50 (MRC5 [5]),growth inhibition (GI) (A549 [6]),growth inhibition (GI) (MRC5 [7]),"viability at 48 h, 10 µM [8]"
CC[S@@+]([O-])CCCCN=C=S (racemic),Active,Toxic,Toxic,19.8 µM,40.8 µM,–,–,–
C[S@@+]([O-])CCCCCCN=C=S,Active,–,–,–,–,–,–,–
C[S@@+]([O-])CCCCCN=C=S,Active,Toxic,Toxic,9.62 µM,18.5 µM,–,–,–
C[S@@](=O)CCCCN=C=S [SULFORAPHANE],Active,Toxic,Toxic,19.6 µM,46.6 µM,–,–,–
C[S@+]([O-])CCCCCN=C=S,Active,Toxic,Toxic,12 µM,20.2 µM,–,–,–
CCCC[S@@+]([O-])CCCCN=C=S,Active,Toxic,Toxic,9.77 µM,17.4 µM,Active,Non-toxic,90%
CC(O)C(=O)O (configuration not stated) [LACTIC ACID],–,–,–,26.6 µM,23.9 µM,–,–,–
C[S@+]([O-])CCCCCCN=C=S,Active,–,–,–,–,–,–,–
